8 compounds from paper PMC6710338, “Turning a Collagenesis-Inducing Peptide Into a Potent Antibacterial and Antibiofilm Agent Against Multidrug-Resistant Gram-Negative Bacteria” (Frontiers in Microbiology, 2019) can be followed below.

One experiment concerns E. coli ATCC 25922. The experiment can be described thus: MIC, broth microdilution (CLSI), ATCC reference strain. In kind it is cell-based, Escherichia coli. As for the experimental part:
(§1) The minimum inhibitory concentration (MIC) of synthetic peptides was determined using the broth microdilution method in cation-adjusted Mueller-Hinton broth (MHB2 – Sigma-Aldrich, St. Louis, MO, United States), according to the recommendations of the Clinical and Laboratory Standards Institute ([CLSI, 2012]), against four reference strains, namely, P. aeruginosa ATCC 27853, E. coli ATCC 25922, S. aureus ATCC 25923 and Enterococcus faecalis ATCC 29212. MIC values of peptide 3.1-PP4 were also determined against MDR clinical isolates of P. aeruginosa (PA002, PA004, Pa3, Pa4), E. coli (Ec1, Ec2, EC001, EC002, EC003) and K. pneumoniae (KP004, KP007, KP010). The peptides were tested in the concentration range of 1–1024 μg/mL. The minimum bactericidal concentration (MBC) was determined as previously reported ([Bessa et al., 2018]). According to CLSI guidelines for antimicrobial susceptibility testing, MIC values were determined for all peptides against ATCC reference strains of two Gram-positive (S. aureus ATCC 25923 and E. faecalis ATCC 29212), and two Gram-negative (P. aeruginosa ATCC 27853 and E. coli ATCC 25922) bacterial species, and are shown in Table 2.
On the technique in general: In broth dilution the organism is exposed to a series of concentrations in liquid medium.

A further experiment has as its system P. aeruginosa ATCC 27853. The experiment is described as above. In kind it is cell-based, Pseudomonas aeruginosa. As for the experimental part:
as §1

Another experiment concerns S. aureus ATCC 25923. The experiment is described as above. In kind it is cell-based, Staphylococcus aureus. Here is the method: as §1
The test system of another experiment is E. faecalis ATCC 29212. The description is as above. In kind it is cell-based, Enterococcus faecalis. Here is the method:
as §1

The test system of a further experiment is HFF-1 cells. The class given is cell-based, human. As for the experimental part: Immortalized human foreskin fibroblasts (HFF-1) were grown as a monolayer from passage number 8–16. For routine maintenance, HFF-1 cells were cultured in Dulbecco’s Modified Eagle Medium (DMEM, from Cell Lines Service) supplemented with 15% fetal bovine serum (FBS, from CLS) and 1% antibiotic/antimycotic solution (100 units/mL of penicillin, 100 μg/mL of streptomycin and 0.25 μg/mL of amphotericin B, from Sigma-Aldrich, St. Louis, MO, United States) at 37°C in an humidified atmosphere with 5% CO2. Cells were harvested by trypsinization [0.25% (w/v) trypsin-EDTA4Na, Sigma-Aldrich, St. Louis, MO, United States] twice a week.
The cytotoxicity of synthetic peptides to HFF-1 cells was evaluated using the standard MTT assay. Briefly, cells were seeded at a density of 8 × 10^4 cells/well onto 96-well plate and incubated at 37°C in a 5% CO2 atmosphere. Cells were allowed to grow for 48 h, and serially diluted peptide solutions (0.78–100 μM) were added to the wells. Then, cells were incubated for 72 h at 37°C, after which wells were washed once with phosphate buffered saline (PBS, Sigma-Aldrich, St. Louis, MO, United States), followed by addition of a 0.45 mg/mL MTT solution to each well. Crystals were allowed to form for 1.5 h. Reaction was stopped by rejecting the medium and addition of dimethylsulfoxide (DMSO, Sigma-Aldrich, St. Louis, MO, United States). Absorbance was read at 570 nm (Biotek PowerWave XS).
At the end of the cytotoxicity assays, the number of viable cells was never below that of initially plated cells. As such, data are represented as peptide concentrations causing 50% growth inhibition (IC50) on HFF-1 cells, rather than as lethal dosis values. IC50 values thus obtained are also included in Table 2.

Where [1] appears, read: E. coli ATCC 25922, broth microdilution in cation-adjusted Mueller-Hinton broth (MHB2), CLSI, range tested 1–1024 μg/mL.
The mark [2] stands for this setting: P. aeruginosa ATCC 27853, broth microdilution in MHB2, CLSI, range tested 1–1024 μg/mL.
[3] abbreviates: S. aureus ATCC 25923, broth microdilution in MHB2, CLSI, range tested 1–1024 μg/mL.
Setting [4] is: E. faecalis ATCC 29212, broth microdilution in MHB2, CLSI, range tested 1–1024 μg/mL.

Like-named read-outs stand apart in the source and are kept apart here. Square brackets hold non-standard residues; d marks the D form. Peptide text beside a SMILES is read from it. * marks the point of attachment. Palmitoyl = CCCCCCCCCCCCCCCC(=O)*; βAla = NCCC(=O)O

As a reminder, the MIC is the least concentration at which growth counts as inhibited. In general, IC50 refers to the concentration needed to halve the response being measured.

On to `CCCCCCCCCCCCCCCC(=O)N[C@@H](CCCCN)C(=O)N[C@@H](CCCCN)C(=O)N[C@@H](CC(C)C)C(=O)N[C@@H](CC(C)C)C(=O)N[C@@H](CCCCN)C(=O)N[C@@H](Cc1c[nH]c2ccccc12)C(=O)N[C@@H](CC(C)C)C(=O)N[C@@H](CC(C)C)C(=O)N[C@@H](CCCCN)C(=O)N[C@@H](CC(C)C)C(=O)N[C@@H](CC(C)C)C(N)=O` [Peptide C16-3.1] (Palmitoyl-KKLLKWLLKLL-NH2), for which the MIC was 78.4 µM against E. coli ATCC 25922 (ATCC 25922); 128 µg/mL against E. coli ATCC 25922 (setting [1]); 78.4 µM against P. aeruginosa ATCC 27853 (ATCC 27853); 128 µg/mL in the experiment with P. aeruginosa ATCC 27853 (setting [2]); over 627 µM with S. aureus ATCC 25923 (ATCC 25923); over 1024 µg/mL in the experiment on S. aureus ATCC 25923 (setting [3]). Further, the MIC in the experiment with E. faecalis ATCC 29212 (ATCC 29212) was determined as 256 µg/mL. The IC50 in the experiment with HFF-1 cells (72 h) came out at 23.4 ± 0.7 µM.
As to `CC(C)C[C@H](NC(=O)[C@H](CC(C)C)NC(=O)[C@H](CCCCN)NC(=O)[C@H](CC(C)C)NC(=O)[C@H](CC(C)C)NC(=O)[C@H](Cc1c[nH]c2ccccc12)NC(=O)[C@H](CCCCN)NC(=O)[C@H](CC(C)C)NC(=O)[C@H](CC(C)C)NC(=O)[C@H](CCCCN)NC(=O)[C@H](CCCCN)NC(=O)CCNC(=O)[C@H](CO)NC(=O)[C@H](CCCCN)NC(=O)[C@@H](NC(=O)[C@@H](NC(=O)[C@@H](N)CCCCN)[C@@H](C)O)[C@@H](C)O)C(N)=O` [PP4-β-ala-3.1] (H-KTTKS[βAla]KKLLKWLLKLL-NH2), the minimal inhibitory concentration (MIC) in the experiment on E. coli ATCC 25922 (ATCC 25922) is 2 µM; in the experiment on P. aeruginosa ATCC 27853 (ATCC 27853), 2 µM; in the experiment on S. aureus ATCC 25923 (ATCC 25923), 4 µM; with E. faecalis ATCC 29212 (ATCC 29212), 4 µM. Moreover, it took 24 ± 2 µM to reach half-maximal inhibition in the experiment on HFF-1 cells (72 h) (IC50).
For `CCCCCCCCCCCCCCCC(=O)N[C@@H](CCCCN)C(=O)N[C@@H](CCCCN)C(=O)N[C@@H](CC(C)C)C(=O)N[C@@H](CC(C)C)C(=O)N[C@@H](CCCCN)C(=O)N[C@@H](Cc1c[nH]c2ccccc12)C(=O)N[C@@H](CC(C)C)C(=O)N[C@@H](CC(C)C)C(=O)N[C@@H](CCCCN)C(=O)N[C@@H](CC(C)C)C(=O)N[C@@H](CC(C)C)C(=O)N[C@@H](CCCCN)C(=O)N[C@H](C(=O)N[C@H](C(=O)N[C@@H](CCCCN)C(=O)N[C@@H](CO)C(N)=O)[C@@H](C)O)[C@@H](C)O` [Peptide C16-3.1-PP4] (Palmitoyl-KKLLKWLLKLLKTTKS-NH2), the MIC in the experiment on E. coli ATCC 25922 (ATCC 25922) came out at 29 µM; in the experiment with E. coli ATCC 25922 (setting [1]), 64 µg/mL; in the experiment on P. aeruginosa ATCC 27853 (ATCC 27853), 29 µM; with P. aeruginosa ATCC 27853 (setting [2]), 64 µg/mL; in the experiment with S. aureus ATCC 25923 (ATCC 25923) it was 59 µM; against S. aureus ATCC 25923 (setting [3]), 128 µg/mL. The MIC in the experiment on E. faecalis ATCC 29212 (ATCC 29212) was in the range of 30 to 59 µM; against E. faecalis ATCC 29212 (setting [4]), 64 to 128 µg/mL. In the experiment with HFF-1 cells (72 h), this compound had an IC50 of 17.8 ± 0.5 µM.
With `C[C@@H](O)[C@H](NC(=O)[C@@H](NC(=O)[C@@H](N)CCCCN)[C@@H](C)O)C(=O)N[C@@H](CCCCN)C(=O)N[C@@H](CO)C(N)=O` [PP4, reference compound] (H-KTTKS-NH2), the MIC in the experiment with E. coli ATCC 25922 (ATCC 25922), against P. aeruginosa ATCC 27853 (ATCC 27853), in the experiment on S. aureus ATCC 25923 (ATCC 25923) and with E. faecalis ATCC 29212 (ATCC 29212) was over 1820 µM each time. Besides, in the experiment on HFF-1 cells (72 h), the IC50 is over 100 µM.
As to `CCCCCCCCCCCCCCCC(=O)N[C@@H](CCCCN)C(=O)N[C@H](C(=O)N[C@H](C(=O)N[C@@H](CCCCN)C(=O)N[C@@H](CO)C(N)=O)[C@@H](C)O)[C@@H](C)O` [Peptide C16-PP4, reference compound] (Palmitoyl-KTTKS-NH2), the IC50 in the experiment on HFF-1 cells (72 h) is over 100 µM.
Consider `CCCCCCCCCCCCCCCC(=O)N[C@@H](CCCCN)C(=O)N[C@H](C(=O)N[C@H](C(=O)N[C@@H](CCCCN)C(=O)N[C@@H](CO)C(=O)N[C@@H](CCCCN)C(=O)N[C@@H](CCCCN)C(=O)N[C@@H](CC(C)C)C(=O)N[C@@H](CC(C)C)C(=O)N[C@@H](CCCCN)C(=O)N[C@@H](Cc1c[nH]c2ccccc12)C(=O)N[C@@H](CC(C)C)C(=O)N[C@@H](CC(C)C)C(=O)N[C@@H](CCCCN)C(=O)N[C@@H](CC(C)C)C(=O)N[C@@H](CC(C)C)C(N)=O)[C@@H](C)O)[C@@H](C)O` [Peptide C16-PP4-3.1] (Palmitoyl-KTTKSKKLLKWLLKLL-NH2), for which the minimum inhibitory concentration (MIC) against E. coli ATCC 25922 (ATCC 25922) was determined as 15 µM; against E. coli ATCC 25922 (setting [1]), 32 µg/mL; in the experiment on P. aeruginosa ATCC 27853 (ATCC 27853) it was 29 µM; in the experiment with P. aeruginosa ATCC 27853 (setting [2]), 64 µg/mL; against S. aureus ATCC 25923 (ATCC 25923), 29 µM; against S. aureus ATCC 25923 (setting [3]), 64 µg/mL. Moreover, the MIC was 29 µM in the experiment with E. faecalis ATCC 29212 (ATCC 29212) and 64 µg/mL in the experiment with E. faecalis ATCC 29212 (setting [4]). The compound also returned an IC50 with HFF-1 cells (72 h) of 4.98 ± 0.08 µM.
Regarding `CC(C)C[C@H](NC(=O)[C@H](CC(C)C)NC(=O)[C@H](CCCCN)NC(=O)[C@H](CC(C)C)NC(=O)[C@H](CC(C)C)NC(=O)[C@H](Cc1c[nH]c2ccccc12)NC(=O)[C@H](CCCCN)NC(=O)[C@H](CC(C)C)NC(=O)[C@H](CC(C)C)NC(=O)[C@H](CCCCN)NC(=O)[C@@H](N)CCCCN)C(N)=O` [Peptide 3.1, reference compound] (H-KKLLKWLLKLL-NH2), the MIC was 6 µM in the experiment on E. coli ATCC 25922 (E. coli ATCC 25922, broth microdilution in MHB2, CLSI, value in parentheses); 3 µM with P. aeruginosa ATCC 27853 (P. aeruginosa ATCC 27853, broth microdilution in MHB2, CLSI, value in parentheses); 3 µM in the experiment on S. aureus ATCC 25923 (S. aureus ATCC 25923, broth microdilution in MHB2, CLSI, value in parentheses); 3 to 6 µM with E. faecalis ATCC 29212 (E. faecalis ATCC 29212, broth microdilution in MHB2, CLSI, value in parentheses). Also, the IC50 in the experiment with HFF-1 cells (50% growth inhibition, MTT, 72 h incubation at 37°C, 0.78–100 μM, absorbance 570 nm, read-out: IC50 ± SEM on HFF-1 cells) amounted to 50 ± 3 µM.
In the case of `CC(C)C[C@H](NC(=O)[C@H](CC(C)C)NC(=O)[C@H](CCCCN)NC(=O)[C@H](CC(C)C)NC(=O)[C@H](CC(C)C)NC(=O)[C@H](Cc1c[nH]c2ccccc12)NC(=O)[C@H](CCCCN)NC(=O)[C@H](CC(C)C)NC(=O)[C@H](CC(C)C)NC(=O)[C@H](CCCCN)NC(=O)[C@H](CCCCN)NC(=O)[C@H](CO)NC(=O)[C@H](CCCCN)NC(=O)[C@@H](NC(=O)[C@@H](NC(=O)[C@@H](N)CCCCN)[C@@H](C)O)[C@@H](C)O)C(N)=O` [PP4-3.1] (H-KTTKSKKLLKWLLKLL-NH2), the MIC in the experiment on E. coli ATCC 25922 (ATCC 25922) is 2 µM; in the experiment with P. aeruginosa ATCC 27853 (ATCC 27853) it was 1 µM; in the experiment on S. aureus ATCC 25923 (ATCC 25923), 4 µM; in the experiment with E. faecalis ATCC 29212 (ATCC 29212), 8 µM. Besides, the IC50 with HFF-1 cells (72 h) was found to be 25 ± 2 µM.
